Test results: US5591715A, “Methods and compositions for reducing multidrug resistance” (priority 1995, dated 1997)
≈ marks a conversion by molar mass, not a printed value.

How the values were obtained:
KB 3-1 cells = experiment: cells; assay type: cell-based; conditions: Homo sapiens, KB 3-1, 1 h, Table V, read-out: MFI (T/U), treated cells/untreated cells; for fold induction at 100 µg/mL: KB3-1, 100 μg/ml
Excerpt: ^b Mean Fluorescence Intensity resulting from intracellular rhodamine

KB 8-5-11 cells [1] = experiment: Relative RMA activity: percent KB 8-5-11 (MDR) cells showing rhodamine 123 fluorescence in the range of sensitive KB 3-1 cells; assay type: cell-based, human; conditions: Table V, none = 0.6
Experimental: Efflux of rhodamine 123 from MDR cells was also examined to provide direct information about the action of the transport protein Mdr 1. Enhanced accumulation of the P-gp substrate, rhodamine 123, in multidrug resistant KB 8-5-11 cells was used to measure RMA activity. Flow cytometric analysis was performed as described (Coon et al., 1991; Buckingham et al. 1995). Briefly, multidrug resistant KB 8-5-11 cells (0.5×10^6 cells/ml) were incubated with […] rhodamine 123 at 37° C. in the presence or absence of the putative RMA. After 60 min., mean intracellular steady state rhodamine 123 fluorescence was measured on an Epics Profile How Cytometer (Coulter, Hialeah, Fla.).
SOLUTOL® HS 15 was fractionated using reverse phase liquid chromatography to determine where the activity resides in the preparation. An approximately 50% solution of SOLUTOL® HS 15 was prepared in 100% acetonitrile (ACN) and water. One ml of the SOLUTOL® HS 15 solution was injected onto a Phenomenex IB-Sil reversed phase column. The column has 5 μm particles, and is 4.6 mm internal diameter by 150 mm. The flow rate was 2.0 ml/min. The mobile phase was as follows: A=5% ACN and B=100% ACN. The gradient was linear with 100% A to 100% B in 15 minutes, then was maintained at 100% B. Fractions were collected at 30 second intervals. The various fractions were assayed for RMA activity as described in Example III. […] 145-149, 1989.
The various fractions obtained from the reverse phase liquid chromatography were analyzed to determine the RMA activity in each fraction. The fractions were then analyzed by infrared spectrophotometry.
^a Percent cells KB85-11 (MDR) showing rhodamine 123 fluorescence in
the range of sensitive cell (KB31) in the same experiment.
CREMOPHOR® EL was fractionated by super critical extraction. Approximately 25 grams of CREMOPHOR® EL was thoroughly mixed with 20 grams of hydromatrix (silicon dioxide) manufactured by Varian--Harbor City, Calif. 40710 and loaded into a stainless steel high pressure extraction cell. The extraction cell was maintained at 40° C. Supercritical carbon dioxide was pumped into the extraction cell at a rate of approximately 3 liters of gaseous carbon dioxide per minute (4 ml of supercritical carbon dioxide per minute). The extractable material was dissolved under the extraction conditions, and separated from the matrix. The supercritical carbon dioxide solution with dissolved component was then depressurized to evaporate the carbon dioxide gas, and to precipitate the solute. […]
^a Percent KB 85-11 (MDR) cells showing rhodamine 123 fluorescence in
The RMA activity of various fatty acids, PEG monoesters and PEG diesters was determined by the method described in Example III. […]

KB 8-5-11 cells [2] = experiment: cells; assay type: cell-based; conditions: Homo sapiens, 1 h, Table V, read-out: MFI (T/U), treated cells/untreated cells; for fold induction at 100 µg/mL: KB8-5-11, 100 μg/ml
Excerpt: A series of PEG domains of average MW 600, 900 or 1500 was synthesized.

Mdr1 protein = conditions: cited from earlier work
in vitro [3] = conditions: human, kb 3-1 cells
in vitro [4] = conditions: human, kb 8-5 cells
in vitro [5] = conditions: human, kb 8-5-11 cells
in vitro [6] = conditions: human, k562/iii cells
Experimental: The chromogenic substrate, MTT (Sigma), was used to enumerate viable cells. […] For the Resistance Modification Index (RMI, Eliason et al., 1990), cells were prepared in microtiter plates and incubated with the indicated drugs and RMA. RMI was calculated as the IC50 of drug alone/IC50 of drug+RMA. The average RMI was calculated from at least three independent assays.
Growth is related as % relative to untreated cells.

[7] = system: multidrug resistant cells; conditions: cited from earlier work
[8] = In vivo tolerability of RMA; conditions: dosages achieving equivalent or superior reversal of MDR vs verapamil

SMILES: CC/C=C\C/C=C\C/C=C\CCCCCCCC(=O)O [Linolenic Acid]
- fold induction at 10 µg/mL (KB 3-1 cells; KB3-1, 10 μg/ml): 1.2
- fold induction at 100 µg/mL (KB 3-1 cells): 1.7
- Relative RMA Activity (KB 8-5-11 cells [1]; 10 μg/ml): 1.3%
- Relative RMA Activity (KB 8-5-11 cells [1]; 100 μg/ml): 9.2%
- fold induction at 10 µg/mL (KB 8-5-11 cells [2]; KB8-5-11, 10 μg/ml): 0.9
- fold induction at 100 µg/mL (KB 8-5-11 cells [2]): 1.7

SMILES: CCCCCCCC/C=C\CCCCCCCC(=O)O [Oleic Acid]
- fold induction at 100 µg/mL (KB 3-1 cells): 2.1
- Relative RMA Activity (KB 8-5-11 cells [1]; 100 μg/ml): 2.7%
- fold induction at 100 µg/mL (KB 8-5-11 cells [2]): 1.7

SMILES: COc1cc2c(c(OC)c1OC)-c1ccc(OC)c(=O)cc1[C@@H](NC(C)=O)CC2 [Colchicine, colchicine]
- competition for vinblastine binding (Mdr1 protein): does not compete for vinblastine binding
- interaction with identified drug-binding site on Mdr1 protein (Mdr1 protein): interact weakly with the identified drug-binding site on the Mdr1 protein

SMILES: CCCCCCCCCCCCCCCCCC(=O)O [Stearic Acid]
- fold induction at 100 µg/mL (KB 3-1 cells): 1.9
- Relative RMA Activity (KB 8-5-11 cells [1]; 100 μg/ml): 2.1%
- fold induction at 100 µg/mL (KB 8-5-11 cells [2]): 1.4

SMILES: COc1ccc(CCN(C)CCCC(C#N)(c2ccc(OC)c(OC)c2)C(C)C)cc1OC (stereo not shown) [Verapamil]
- CC50 at 72 h (in vitro [3]): 40 µg/mL (≈ 88 µM)
- CC50 at 72 h (in vitro [4]): 10 µg/mL (≈ 22 µM)
- CC50 at 72 h (in vitro [5]): 27 µg/mL (≈ 59.4 µM)
- CC50 at 72 h (in vitro [6]): 38 µg/mL (≈ 83.6 µM)
- effect against VP-16 multidrug resistance (literature) [7]: not effective against VP-16 multidrug resistance
- intracellular localization of doxorubicin with added agent (literature) ([7]; drug resistant cells): doxorubicin is localized mainly in the nucleus in drug resistant cells
- in vivo tolerability [8]: marked toxicity

SMILES: [N-]=[N+]=[N-] [azide]
- RMA activity / reversal of multidrug resistance (literature) ([7]; in vitro): reverse multidrug resistance in vitro
